In US20250115598A1 (Anaxis Pharma Pty Ltd, priority 2021, published 2025) one finds IC50 and Kd data, which are given here for eight compounds.

Read-outs that look alike come from different tables or passages of the source. Bounds are passed on as bounds.

As a reminder, the IC50 is the point on the concentration scale where inhibition reaches its midpoint. As usually defined, the Kd is the free concentration of one partner at which half of the binding sites on the other are occupied at equilibrium, for simple one-to-one binding.

In one experiment the test system is U937 cells. Description: Counter screen: cell viability without the TSQ cocktail (off-target effect). More on the design: species or system human. In outline: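 U937 cells (20000/well, HT-RPMI + 7.4% FBS) treated with compound (10-point 1:3 dilution from 36 μM, 0.3% DMSO) without the TSQ cocktail for 48 h at 37 °C/5% CO2. Viability read as ATP by CellTiter-Glo luminescence, flagging off-target cytotoxicity.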
On the technique in general: A counterscreen serves to expose hits that act by an unwanted route or on another target.

Another experiment concerns the target human MLKL (full length) (Homo sapiens (Human), UniProt Q8NB16). In words: KINOMEscan binding assay, human MLKL (full length). In outline:
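Tagged kinase + immobilized ligand beads + compound; eluted kinase quantified by qPCR. Kinase source: T7 phage lysate (BL21-derived E. coli, 32 °C) or HEK-293 with DNA tag. 11-pt 3-fold series, 1% DMSO, top 30,000 nM (most). Hill fit, slope −1 → Kd.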

The test system of experiment [1] is U937 human histiocytic leukemia cell line. Description: Cellular assay: inhibition of TSQ induced necroptosis, CellTitre-Glo viability. As to conditions: U937 cells, 48 hours, TSQ cocktail, read-out: Inhibition of TSQ-induced necroptosis (IC50 cell-based assay). The method, boiled down:
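U937 cells (20,000/well) treated with compound (10-point, 36 μM top, 1:3) plus TSQ cocktail (hTNF-Fc 100 ng/ml, Smac mimetic 500 nM, Q-VD-OPh 10 μM), 48 h at 37° C., 0.3% DMSO. Viability by CellTitre-Glo ATP luminescence; counter screen without TSQ measured compound-only effects on viability.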

Where [2] appears, read: Table 23, read-out: Off-target effect (IC50 cell-based assay).
Setting [3] is: KINOMEscan, Table 21, read-out: Human MLKL (full-length) (KD).
[4] abbreviates: Homo sapiens, U-937, Table 26, read-out: Off-target effect (IC50 cell-based assay).
Setting [5] is: hMLKL, Table 25, read-out: MLKL (KD).

Chain of human MLKL (full length) (Q8NB16 whole entry): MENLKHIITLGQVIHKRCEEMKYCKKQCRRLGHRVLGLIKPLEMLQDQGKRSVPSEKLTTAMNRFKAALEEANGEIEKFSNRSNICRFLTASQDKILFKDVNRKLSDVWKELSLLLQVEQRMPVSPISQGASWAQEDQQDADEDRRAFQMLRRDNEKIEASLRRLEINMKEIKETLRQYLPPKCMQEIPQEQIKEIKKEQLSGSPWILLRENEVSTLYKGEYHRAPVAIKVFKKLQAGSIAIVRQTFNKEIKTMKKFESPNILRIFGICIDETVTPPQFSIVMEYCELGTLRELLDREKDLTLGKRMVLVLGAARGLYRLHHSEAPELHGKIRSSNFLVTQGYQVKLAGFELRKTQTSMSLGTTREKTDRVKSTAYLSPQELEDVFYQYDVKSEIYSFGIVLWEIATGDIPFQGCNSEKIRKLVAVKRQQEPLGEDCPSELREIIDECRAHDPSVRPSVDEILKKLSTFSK

As to “N-(4-(4-amino-1-methyl-7-(1-(1,2,2-trimethylpiperidin-4-yl)-1H-pyrazol-4-yl)-1H-pyrazolo[4,3-c]pyridin-3-yl)-2-((S)-1-(4-fluorophenyl)ethoxy)phenyl)-1,1-difluoromethanesulfonamide [Compound 113]”, the IC50 was > 10000 nM with U937 cells (setting [2]) and < 10 nM in experiment [1] (Table 23). The Kd on human MLKL (full length) (setting [3]) is < 1 nM.

`Cc1ncsc1-c1ccc(CNC(=O)[C@@H]2C[C@@H](O)CN2C(=O)[C@@H](NC(=O)COCCOCCn2cc(-c3cnc(N)c4c(-c5ccc(NS(=O)(=O)C(F)F)c(O[C@@H](C)c6ccc(F)cc6)c5)nn(C)c34)cn2)C(C)(C)C)cc1` [Compound 1006, (2S,4R)-1-[(2S)-2-(2-{2-[2-(4-{4-amino-3-[4-(difluoromethanesulfonamido)-3-[(1S)-1-(4-fluorophenyl)ethoxy]phenyl]-1-methyl-1H-pyrazolo[4,3-c]pyridin-7-yl}-1H-pyrazol-1-yl)ethoxy]ethoxy}acetamido)-3,3-dimethylbutanoyl]-4-hydroxy-N-{[4-(4-methyl-1,3-thiazol-5-yl)phenyl]methyl}pyrrolidine-2-carboxamide]: the IC50 in the experiment with U937 cells (setting [4]) is 1000 to 10000 nM; in experiment [1] (Homo sapiens, U-937, Table 26) it was < 1000 nM. Also, on human MLKL (full length) (setting [5]), the dissociation constant Kd was < 10 nM.

Regarding `Cc1ncsc1-c1ccc(CNC(=O)[C@@H]2C[C@@H](O)CN2C(=O)[C@@H](NC(=O)COCCN2CCCC(n3cc(-c4cnc(N)c5c(-c6ccc(NS(=O)(=O)C(F)F)c(O[C@@H](C)c7ccc(F)cc7)c6)nn(C)c45)cn3)C2)C(C)(C)C)cc1` (stereo partly drawn) [Compound 1015, (2S,4R)-1-[(2S)-2-(2-{2-[3-(4-{4-amino-3-[4-(difluoromethanesulfonamido)-3-[(1S)-1-(4-fluorophenyl)ethoxy]phenyl]-1-methyl-1H-pyrazolo[4,3-c]pyridin-7-yl}-1H-pyrazol-1-yl)piperidin-1-yl]ethoxy}acetamido)-3,3-dimethylbutanoyl]-4-hydroxy-N-{[4-(4-methyl-1,3-thiazol-5-yl)phenyl]methyl}pyrrolidine-2-carboxamide], the IC50 was > 10000 nM in the experiment on U937 cells (setting [4]) and < 1000 nM in experiment [1] (Homo sapiens, U-937, Table 26). Also, the Kd at human MLKL (full length) (setting [5]) was < 10 nM.

As to `Nc1ncc(-c2cnn(C3CCOCC3)c2)c2[nH]nc(-c3ccc(NS(=O)(=O)C(F)F)c(OCc4cccc(Cl)c4)c3)c12` [Compound 131], the results for the IC50 (in the experiment with U937 cells (setting [2]); in experiment [1] (Table 23)) were > 10000 nM and 10 to 1000 nM, respectively. The equilibrium dissociation constant (Kd) on human MLKL (full length) (setting [3]) lay within 1 to 100 nM.

Take `Cc1ncsc1-c1ccc(CNC(=O)[C@@H]2C[C@@H](O)CN2C(=O)[C@@H](NC(=O)CCCCCCn2cc(-c3cnc(N)c4c(-c5ccc(NS(=O)(=O)C(F)F)c(O[C@@H](C)c6ccc(F)cc6)c5)nn(C)c34)cn2)C(C)(C)C)cc1` [Compound 1008, (2S,4R)-1-[(2S)-2-[7-(4-{4-amino-3-[4-(difluoromethanesulfonamido)-3-[(1 S)-1-(4-fluorophenyl)ethoxy]phenyl]-1-methyl-1H-pyrazolo[4,3-c]pyridin-7-yl}-1H-pyrazol-1-yl)heptanamido]-3,3-dimethylbutanoyl]-4-hydroxy-N-{[4-(4-methyl-1,3-thiazol-5-yl)phenyl]methyl}pyrrolidine-2-carboxamide]: the IC50 is 1000 to 10000 nM in the experiment with U937 cells (setting [4]) and < 1000 nM in experiment [1] (Homo sapiens, U-937, Table 26). For the same compound, the Kd on human MLKL (full length) (setting [5]) was < 10 nM.

With `C[C@H](Oc1cc(-c2nn(C)c3c(-c4cnn(CCCCCCCOc5cccc6c5C(=O)N(C5CCC(=O)NC5=O)C6=O)c4)cnc(N)c23)ccc1NS(=O)(=O)C(F)F)c1ccc(F)cc1` (stereo partly shown) [Compound 1031, N-(4-{4-amino-7-[1-(7-{[2-(2,6-dioxopiperidin-3-yl)-1,3-dioxo-2,3-dihydro-1H-isoindol-4-yl]oxy}heptyl)-1H-pyrazol-4-yl]-1-methyl-1H-pyrazolo[4,3-c]pyridin-3-yl}-2-[(1 S)-1-(4-fluorophenyl)ethoxy]phenyl)-1,1-difluoromethanesulfonamide], on human MLKL (full length) (setting [5]), the Kd was 10 to 1000 nM. Also, the IC50 in experiment [1] (Homo sapiens, U-937, Table 26) is < 1000 nM.

Regarding `Cc1ncsc1-c1ccc(CNC(=O)[C@@H]2C[C@@H](O)CN2C(=O)[C@@H](NC(=O)COCCN2CCC(n3cc(-c4cnc(N)c5c(-c6ccc(NS(=O)(=O)C(F)F)c(O[C@@H](C)c7ccc(F)cc7)c6)nn(C)c45)cn3)CC2)C(C)(C)C)cc1` [Compound 1018, (2S,4R)-1-[(2S)-2-(2-{2-[4-(4-{4-amino-3-[4-(difluoromethanesulfonamido)-3-[(1S)-1-(4-fluorophenyl)ethoxy]phenyl]-1-methyl-1H-pyrazolo[4,3-c]pyridin-7-yl}-1H-pyrazol-1-yl)piperidin-1-yl]ethoxy}acetamido)-3,3-dimethylbutanoyl]-4-hydroxy-N-{[4-(4-methyl-1,3-thiazol-5-yl)phenyl]methyl}pyrrolidine-2-carboxamide], the half-inhibitory concentration (IC50) with U937 cells (setting [4]) is > 10000 nM; in experiment [1] (Homo sapiens, U-937, Table 26), < 1000 nM. Further, at human MLKL (full length) (setting [5]), the Kd is < 10 nM.

In the case of `Cc1ncsc1-c1ccc(CNC(=O)[C@@H]2C[C@@H](O)CN2C(=O)[C@@H](NC(=O)CCN2CCCC(n3cc(-c4cnc(N)c5c(-c6ccc(NS(=O)(=O)C(F)F)c(O[C@@H](C)c7ccc(F)cc7)c6)nn(C)c45)cn3)C2)C(C)(C)C)cc1` (stereo partly drawn) [Compound 1014, (2S,4R)-1-[(2S)-2-{3-[3-(4-{4-amino-3-[4-(difluoromethanesulfonamido)-3-[(1S)-1-(4-fluorophenyl)ethoxy]phenyl]-1-methyl-1H-pyrazolo[4,3-c]pyridin-7-yl}-1H-pyrazol-1-yl)piperidin-1-yl]propanamido}-3,3-dimethylbutanoyl]-4-hydroxy-N-{[4-(4-methyl-1,3-thiazol-5-yl)phenyl]methyl}pyrrolidine-2-carboxamide], the half-maximal inhibitory concentration (IC50) in the experiment with U937 cells (setting [4]) is > 10000 nM; in experiment [1] (Homo sapiens, U-937, Table 26), < 1000 nM.
